The values that follow come from US20070259889A1, “Protein Binding Compounds” (priority 2003, published 2007).

This series deals with bovine serum albumin (BSA) (Bos taurus, UniProt P02769). Kind of series: Protein binding studies (albumin binding, centrifugal ultrafiltration, HPLC). It counts as in vitro ADME. Conditions: didanosine and didanosine prodrugs; method of Example 7: 4% BSA in water, 30 minutes at 37° C., 10,000 MWCO centrifugal filter, phosphate buffer pH 7.4 reference. How it is done: The compound (approximately 5 mg) was dissolved in DMSO (approximately 1.8 ml). A small sample of this DMSO solution (approximately 5 mg) was added to a solution of bovine serum albumin (BSA) in water (approximately 1.8 ml, 4% BSA). Another sample of the DMSO solution (approximately 5 mg) was added to a solution of phosphate buffer pH 7.4 (isotonic) (approximately 1.8 ml).
Chain of bovine serum albumin (BSA) (P02769 25-607): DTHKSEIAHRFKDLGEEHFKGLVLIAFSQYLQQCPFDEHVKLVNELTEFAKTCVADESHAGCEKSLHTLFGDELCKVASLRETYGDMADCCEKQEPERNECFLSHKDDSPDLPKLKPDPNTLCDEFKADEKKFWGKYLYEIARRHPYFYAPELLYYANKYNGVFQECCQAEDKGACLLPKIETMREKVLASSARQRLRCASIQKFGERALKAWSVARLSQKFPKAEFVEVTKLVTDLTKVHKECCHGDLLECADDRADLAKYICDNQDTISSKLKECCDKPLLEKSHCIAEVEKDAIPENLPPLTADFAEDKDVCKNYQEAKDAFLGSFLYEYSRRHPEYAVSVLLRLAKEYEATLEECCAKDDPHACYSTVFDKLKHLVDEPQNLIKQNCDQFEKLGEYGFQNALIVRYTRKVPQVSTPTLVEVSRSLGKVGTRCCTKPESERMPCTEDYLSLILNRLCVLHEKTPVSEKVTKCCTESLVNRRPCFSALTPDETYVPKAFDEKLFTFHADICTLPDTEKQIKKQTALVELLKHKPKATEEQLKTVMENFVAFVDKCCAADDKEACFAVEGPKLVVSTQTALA
Both samples were shaken in a water bath for 30 minutes at 37° C.
The devices were centrifugated at 4000 rpm for 1 hour at 37° C.
The amount of drug in the filtrates was determined by HPLC(C-18 column, phosphate buffer pH 2.2/acetonitrile, UV detection).

On to `O=C(O)CCCCCCC(=O)OCC1CCC(n2cnc3c(=O)[nH]cnc32)O1` (stereo not shown) [2′,3′-dideoxy-5′-hydrogen octanedioate inosine], for which the “% Albumin binding” value is given as 40%. Regarding `O=C(O)CCCCC(=O)OCC1CCC(n2cnc3c(=O)[nH]cnc32)O1` (stereo not shown) [2′,3′-dideoxy-5′-hydrogen hexanedioate inosine], the “% Albumin binding” value is on record as 10%. The result for `O=C(O)CCCCCCCCCCC(=O)OCC1CCC(n2cnc3c(=O)[nH]cnc32)O1` (stereo not shown) [2′,3′-dideoxy-5′-hydrogen dodecanedioate inosine] reads 94%; that for `O=C(O)CCCCCCCCCCCCCCC(=O)OCC1CCC(n2cnc3c(=O)[nH]cnc32)O1` (stereo not shown) [2′,3′-dideoxy-5′-hydrogen hexadecanedioate inosine], 100%.
